These results are taken from patent publication US11952384B2, “Anti-tumor compound and preparation method and use thereof” (DUALITY BIOLOGICS (SUZHOU) CO., LTD., priority 2020, dated 2024).

Where two headings read alike, the source gives them in different places.

One series relates to MDA-MB-231 cells. The series can be described thus: Inhibition of in vitro proliferation of tumor cells by compounds (CTG, 6 days). Type of series: cell-based. The note with it: small molecule fragments, 6 days of culture, CTG, read-out: MDA-MB-231 IC50. The protocol: To test the inhibitory activity of the pharmaceutical compounds on the in vitro proliferation of NCI-N87, JIMT-1 and MBA-MB-231 tumor cells. The cells were treated with compounds at different concentrations in vitro, and after 6 days of culture, the proliferation of cells was detected using CTG (CellTiter-Glo® Luminescent Cell Viability Assay, Promega, Cat. No. G7558) reagents, and the in vitro activity of the compounds was evaluated according to the IC50 value. • 1. Culturing of cells: NCI-N87/JIMT-1/MBA-MB-231 cells were cultured in RPMI-1640 medium containing 10% FBS. • 2. Preparation of cells: NCI-N87/JIMT-1/MBA-MB-231 cells in logarithmic phase were taken, washed with PBS once, and digested with 2-3 mL of trypsin for 2-3 min. After the cells were digested completely, 10-15 mL of cell culture was added to elute the digested cells. The eluate was centrifuged at 1000 rpm for 5 min, and the supernatant was discarded. The resulting cells were resuspended in 10-20 mL of cell culture to obtain a single cell suspension. • 3. Cell plating: the NCI-N87/JIMT-1/MBA-MB-231 single cell suspension was mixed well and adjusted to a viable cell density of 6×10^4 cells/mL with cell culture. The cell suspension with the adjusted density was mixed well and added to a 96-well cell culture plate at 50 μL/well. The culture plate was incubated in an incubator for 18 h (37° C., 5% CO2). • 4. Preparation of compounds: the compounds were dissolved in DMSO to obtain stock solutions at an initial concentration of 10 mM. There were 8 concentrations in total for the small molecule compounds: 300 nM, 100 nM, 30 nM, 10 nM, 3 nM, 1 nM, 0.3 nM, and 0.1 nM. • 5. Sample adding: the prepared samples to be detected at different concentrations were added to the culture plate, and two duplicate wells were set for each sample. The culture plate was incubated in an incubator for 6 days (37° C., 5% CO2). • 6. Color developing: the 96-well cell culture plate was taken out, added with the CTG reagent at 50 μL/well, and incubated at room temperature for 10 min. • 7. Plate reading: the 96-well cell culture plate was taken out, placed in a microplate reader, and measured for the chemiluminescence using the microplate reader. Data analysis: data were processed and analyzed using Microsoft Excel and Graphpad Prism 5.

A further series deals with T1, P-gp (Homo sapiens, UniProt P08183).
T1 construct: endogenous in cells; host or cells: Caco-2
The series can be described thus: Study on transporter substrates in Caco-2 cell model. In kind it is in vitro ADME. The conditions noted are these: Caco-2. The protocol:
The resistance of each well was recorded. […] 2. […] The plate was vortexed for 10 min. The samples were centrifuged. […] HBSS was added to the basolateral compartment. […] 3. Data Analysis
Data were calculated using Microsoft Excel.
(In general: Passage across Caco-2 layers is used to estimate intestinal permeability.)

The next series addresses T2, BCRP (Homo sapiens, UniProt Q9UNQ0).
T2 sequence (Q9UNQ0 1-655): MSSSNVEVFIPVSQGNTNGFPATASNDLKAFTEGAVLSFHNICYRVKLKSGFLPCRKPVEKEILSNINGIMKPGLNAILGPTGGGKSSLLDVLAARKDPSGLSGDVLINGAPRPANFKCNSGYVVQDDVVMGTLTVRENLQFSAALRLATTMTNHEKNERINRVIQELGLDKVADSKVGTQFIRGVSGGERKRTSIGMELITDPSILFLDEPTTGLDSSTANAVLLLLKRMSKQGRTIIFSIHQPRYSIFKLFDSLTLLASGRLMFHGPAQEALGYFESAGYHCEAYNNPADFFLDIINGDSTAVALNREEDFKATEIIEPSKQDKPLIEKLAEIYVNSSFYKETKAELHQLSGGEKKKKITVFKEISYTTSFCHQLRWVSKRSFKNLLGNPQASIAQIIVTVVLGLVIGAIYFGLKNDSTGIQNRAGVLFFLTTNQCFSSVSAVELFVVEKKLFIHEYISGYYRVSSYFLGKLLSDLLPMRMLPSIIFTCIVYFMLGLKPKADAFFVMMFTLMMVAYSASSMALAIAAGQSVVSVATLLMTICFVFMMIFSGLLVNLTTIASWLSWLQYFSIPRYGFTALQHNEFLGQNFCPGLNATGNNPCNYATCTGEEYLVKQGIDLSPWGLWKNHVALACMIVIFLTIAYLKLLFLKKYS
The series can be described thus: in vitro. The note with it: for Papp A→B at 2 h: Caco-2, Papp (A-B) (10^−6, cm/s); for Papp B→A at 2 h: Caco-2, Papp (B-A) (10^−6, cm/s).

The test system of a further series is Colo205 cells. Put plainly: Inhibition of in vitro proliferation of tumor cells by compounds (CTG, 6 days). Type of series: cell-based. The conditions noted are these: Homo sapiens, COLO 205, 144 h, Table 4, Test Example 2.4, small molecule fragments, 6 days of culture. The method, then: To test the inhibitory activity of the pharmaceutical compounds on the in vitro proliferation of NCI-N87 and Colo205 tumor cells. The cells were treated with compounds at different concentrations in vitro, and after 6 days of culture, the proliferation of cells was detected using CTG (CellTiter-Glo® Luminescent Cell Viability Assay, Promega, Cat. No. G7558) reagents, and the in vitro activity of the compounds was evaluated according to the IC50 value. • 1. Culturing of cells: NCI-N87/Colo205 cells were cultured in RPMI-1640 medium containing 10% FBS. • 2. Preparation of cells: NCI-N87/Colo205 cells in logarithmic phase were taken, washed with PBS once, and digested with 2-3 mL of trypsin for 2-3 min. After the cells were digested completely, 10-15 mL of cell culture was added to elute the digested cells. The eluate was centrifuged at 1000 rpm for 5 min, and the supernatant was discarded. […] Sample adding: the prepared samples to be detected at different concentrations were added to the culture plate, and two duplicate wells were set for each sample. […] Plate reading: the 96-well cell culture plate was taken out, placed in a microplate reader, and measured for the chemiluminescence using the microplate reader. Data analysis: data were processed and analyzed using Microsoft Excel and Graphpad Prism 5.

Where [1] appears, read: Homo sapiens, MDA-MB-231, 144 h, Table 2 (untitled), Test Example 2.2.

T1 sequence (P08183 whole entry): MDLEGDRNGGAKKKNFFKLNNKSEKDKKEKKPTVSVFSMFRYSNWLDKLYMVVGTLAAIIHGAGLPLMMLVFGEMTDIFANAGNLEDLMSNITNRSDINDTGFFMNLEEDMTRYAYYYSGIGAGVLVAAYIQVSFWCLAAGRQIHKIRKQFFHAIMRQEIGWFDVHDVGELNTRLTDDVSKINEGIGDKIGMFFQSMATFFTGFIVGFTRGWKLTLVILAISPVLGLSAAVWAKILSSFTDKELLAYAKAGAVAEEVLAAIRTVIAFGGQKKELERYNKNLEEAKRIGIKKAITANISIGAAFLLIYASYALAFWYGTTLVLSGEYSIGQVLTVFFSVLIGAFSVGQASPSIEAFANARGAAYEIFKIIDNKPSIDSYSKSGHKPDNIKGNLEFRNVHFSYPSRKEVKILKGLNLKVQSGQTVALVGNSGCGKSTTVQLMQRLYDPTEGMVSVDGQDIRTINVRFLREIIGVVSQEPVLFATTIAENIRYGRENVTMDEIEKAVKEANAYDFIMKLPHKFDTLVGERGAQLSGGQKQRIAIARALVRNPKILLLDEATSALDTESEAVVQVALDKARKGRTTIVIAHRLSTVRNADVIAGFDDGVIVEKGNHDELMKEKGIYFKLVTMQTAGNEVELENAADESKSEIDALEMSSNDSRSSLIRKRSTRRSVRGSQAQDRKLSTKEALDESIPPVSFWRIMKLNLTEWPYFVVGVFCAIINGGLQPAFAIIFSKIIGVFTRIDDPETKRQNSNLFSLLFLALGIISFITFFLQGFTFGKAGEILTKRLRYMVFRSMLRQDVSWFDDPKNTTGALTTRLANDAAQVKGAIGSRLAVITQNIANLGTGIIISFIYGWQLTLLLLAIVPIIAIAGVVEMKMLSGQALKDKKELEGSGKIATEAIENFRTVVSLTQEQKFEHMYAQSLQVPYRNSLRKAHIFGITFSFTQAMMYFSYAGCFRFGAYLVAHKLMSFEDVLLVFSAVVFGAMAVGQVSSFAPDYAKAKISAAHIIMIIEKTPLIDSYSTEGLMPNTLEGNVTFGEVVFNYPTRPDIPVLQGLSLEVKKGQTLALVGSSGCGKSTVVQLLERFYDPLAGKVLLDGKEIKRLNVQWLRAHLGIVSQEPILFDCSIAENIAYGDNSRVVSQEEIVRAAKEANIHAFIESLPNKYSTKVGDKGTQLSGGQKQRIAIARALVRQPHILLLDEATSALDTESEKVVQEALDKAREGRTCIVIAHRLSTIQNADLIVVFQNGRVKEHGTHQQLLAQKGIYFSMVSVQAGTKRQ

As a reminder, the IC50 is the concentration that gives 50% inhibition. In general, Papp A→B refers to how fast a substance crosses the layer from the apical side. Low readings indicate slow passage, high ones fast passage. A word on the Papp B→A: it is how fast a substance crosses the layer from the basolateral side. Turning to `CC[C@@]1(O)C(=O)OCc2c1cc1n(c2=O)Cc2c-1nc1cc(F)c(C)c3c1c2[C@@H](NC(=O)[C@H]1C[C@H](O)C1)CC3` [P-II-4, (1r,3S)-N-((1S,9S)-9-ethyl-5-fluoro-9-hydroxy-4-methyl-10,13-dioxo-2,3,9,10,13,15-hexahydro-1H,12H-benzo[de]pyrano[3′,4′:6,7]indolizino[1,2-b]quinolin-1-yl)-3-hydroxycyclobutane-1-carboxamide], the IC50 with MDA-MB-231 cells (setting [1]) was 7.6 nM. The P-gp substrate result on P-gp is recorded as “neither transporter P-gp substrates nor transporter BCRP substrates”. In addition, at BCRP, the Papp A→B at 2 h turned out to be 0.05 ×10⁻⁶ cm/s and the Papp B→A at 2 h is 1.72 ×10⁻⁶ cm/s.
Take `CC[C@@]1(O)C(=O)OCc2c1cc1n(c2=O)Cc2c-1nc1cc(F)c(C)c3c1c2[C@@H](NC(=O)C1CCC(O)CC1)CC3` (single isomer, unassigned) [P-II-2]: the IC50 with MDA-MB-231 cells (Table 2 (untitled), Test Example 2.2) is 19.3 nM. The P-gp substrate result at P-gp was “neither transporter P-gp substrates nor transporter BCRP substrates”.
As for `CC[C@@]1(O)C(=O)OCc2c1cc1n(c2=O)Cc2c-1nc1cc(F)c(C)c3c1c2[C@@H](NC(=O)[C@H]1C[C@@H](O)C1)CC3` [P-II-3, (1s,3R)-N-((1S,9S)-9-ethyl-5-fluoro-9-hydroxy-4-methyl-10,13-dioxo-2,3,9,10,13,15-hexahydro-1H,12H-benzo[de]pyrano[3′,4′:6,7]indolizino[1,2-b]quinolin-1-yl)-3-hydroxycyclobutane-1-carboxamide], in the series on MDA-MB-231 cells (setting [1]), the IC50 stood at 9.4 nM. On P-gp, the P-gp substrate entry is recorded as “neither transporter P-gp substrates nor transporter BCRP substrates”. Moreover, on BCRP, the Papp A→B at 2 h was 0.17 ×10⁻⁶ cm/s and the Papp B→A at 2 h turned out to be 4.83 ×10⁻⁶ cm/s.
With `CC[C@@]1(O)C(=O)OCc2c1cc1n(c2=O)Cc2c-1nc1cc(F)c(C)c3c1c2[C@@H](NC(=O)C[C@@H](C)O)CC3` [P-III-20, (R)—N-((1S,9S)-9-ethyl-5-fluoro-9-hydroxy-4-methyl-10,13-dioxo-2,3,9,10,13,15-hexahydro-1H,12H-benzo[de]pyrano[3′,4′: 6,7]indolizino[1,2-b]quinolin-1-yl)-3-hydroxybutanamide], the IC50 in the series with MDA-MB-231 cells (Homo sapiens, MDA-MB-231, 144 h, Table 3, Test Example 2.3) was 6.65 nM; in the series with Colo205 cells it was 20 nM.
As to `CC[C@@]1(O)C(=O)OCc2c1cc1n(c2=O)Cc2c-1nc1cc(F)c(C)c3c1c2[C@@H](NC(=O)C1CCC(O)CC1)CC3` (single isomer, unassigned) [P-II-1], the IC50 with MDA-MB-231 cells (setting [1]) is 12.9 nM. For the same compound, the P-gp substrate result on P-gp is recorded as “neither transporter P-gp substrates nor transporter BCRP substrates”.
